Results on 14 compounds are retold here after patent publication US10961236B2, “(S)-2-(1-cyclopropylethyl)-5-(4-methyl-2-((6-(2-oxopyrrolidin-1-yl)pyridin-2-yl)amino) thiazol-5-yl)-7-(methylsulfonyl)isoindolin-1-one as a phosphatidylinositol 3-kinase inhibitor” (AstraZeneca AB, priority 2016, dated 2021).

Common to all, as to assay type: biochemical
Test [1] has as its target recombinant human PI3Kα (6-His(p110-p85α)) (Homo sapiens (Human), UniProt P42336). Put plainly: Enzymatic activity assay for recombinant human PI3Kα (ADP-Glo). The conditions noted are these: 1.2 nM PI3Kα, 20 μM ATP, 80 μM DiC8-PIP2, ADP-Glo. As to the method:
(§1) Enzymatic Activity Assay for Recombinant Human PI3K α, β, δ and γ.
(§2) The activity of recombinant human PI3Kγ ((aa144-1102)-6His) and PI3Kα, β, δ (6-His(p110-p85α)) was determined by measuring the ADP level after phosphorylation of DiC8-PIP2 using a commercially available ADP-Glo™ kit from Promega. The assay was carried out in white low volume 384 well plates in a final volume of 14 μl at R.T. The assay conditions contained the following: 50 mM Tris buffer pH 7.4, 2.1 mM DTT, 3 mM MgCl2, 0.05% CHAPS, 20 μM ATP, 80 μM DiC8-PIP2 and 1.2 nM PI3Kα, β, γ or 0.6 nM PI3Kδ. Potential inhibitors were made up in DMSO and then diluted in the assay to give a final concentration of not exceeding 1% (v/v) DMSO. […] Routinely, inhibitors were pre-incubated with 3 μl of enzyme for 15 min prior to the addition of 2 μl substrate mixture for a further 60 min enzyme reaction. The phosphorylation was stopped with the addition of 3 μl ADP-Glo™ reagent (stop solution) followed by a 40 min incubation. Prior to detection 6 μl of ADP-Glo™ Kinase Detection Reagent was added and the plates were read in a micro plate reader using a Luminescence filter. All additions were followed by a short centrifugation step.
On the technique in general: ADP-Glo first removes unused ATP, then detects ADP through luciferase.

The target in test [2] is recombinant human PI3Kγ ((aa144-1102)-6His) (Homo sapiens (Human), UniProt P48736). Put plainly: Enzymatic activity assay for recombinant human PI3Kγ (ADP-Glo). The conditions noted are these: 1.2 nM PI3Kγ, 20 μM ATP, 80 μM DiC8-PIP2, ADP-Glo. On the procedure: as §1
Sequence of recombinant human PI3Kγ ((aa144-1102)-6His) (P48736 144-1102): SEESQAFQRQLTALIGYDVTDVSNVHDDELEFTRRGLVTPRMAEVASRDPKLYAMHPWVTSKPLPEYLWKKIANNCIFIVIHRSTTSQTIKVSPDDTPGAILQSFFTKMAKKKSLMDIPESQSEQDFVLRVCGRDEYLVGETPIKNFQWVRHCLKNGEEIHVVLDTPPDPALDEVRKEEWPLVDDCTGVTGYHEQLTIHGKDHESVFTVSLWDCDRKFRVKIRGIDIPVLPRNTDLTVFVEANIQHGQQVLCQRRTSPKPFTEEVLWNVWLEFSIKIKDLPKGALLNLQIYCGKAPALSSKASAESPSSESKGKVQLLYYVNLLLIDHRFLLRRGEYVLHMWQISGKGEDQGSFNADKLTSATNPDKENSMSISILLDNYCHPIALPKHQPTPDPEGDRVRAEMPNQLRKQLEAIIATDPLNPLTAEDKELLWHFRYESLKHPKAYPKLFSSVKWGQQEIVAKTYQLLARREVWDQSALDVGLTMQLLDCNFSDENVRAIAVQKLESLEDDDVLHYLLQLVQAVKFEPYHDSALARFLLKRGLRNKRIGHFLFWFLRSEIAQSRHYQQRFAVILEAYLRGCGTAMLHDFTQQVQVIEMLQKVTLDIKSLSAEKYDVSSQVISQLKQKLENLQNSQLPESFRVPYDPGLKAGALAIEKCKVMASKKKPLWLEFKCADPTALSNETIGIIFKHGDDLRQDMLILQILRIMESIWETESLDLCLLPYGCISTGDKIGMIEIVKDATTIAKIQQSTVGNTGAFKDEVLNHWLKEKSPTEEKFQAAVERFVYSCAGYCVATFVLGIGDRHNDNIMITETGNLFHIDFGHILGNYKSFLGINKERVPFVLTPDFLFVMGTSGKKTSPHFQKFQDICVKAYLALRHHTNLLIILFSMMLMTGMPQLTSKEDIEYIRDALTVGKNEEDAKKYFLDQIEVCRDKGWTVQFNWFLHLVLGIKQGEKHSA
as §2, with “PI3Kδ.” for “PI3Kδ. Potential inhibitors were made up in DMSO and then diluted in the assay to give a final concentration of not exceeding 1% (v/v) DMSO.”

Test [3] has as its target recombinant human PI3Kβ (6-His(p110-p85α)) (Homo sapiens (Human), UniProt P42338). Put plainly: Enzymatic activity assay for recombinant human PI3Kβ (ADP-Glo). The conditions noted are these: 1.2 nM PI3Kβ, 20 μM ATP, 80 μM DiC8-PIP2, ADP-Glo. As to the method:
as §1, §2

Test [4] addresses recombinant human PI3Kδ (6-His(p110-p85α)) (Homo sapiens (Human), UniProt O00329). The test is described as follows: Enzymatic activity assay for recombinant human PI3Kδ (ADP-Glo). The conditions noted are these: 0.6 nM PI3Kδ, 20 μM ATP, 80 μM DiC8-PIP2, ADP-Glo. On the procedure: as §1
as §2, with “PI3Kδ.” for “PI3Kδ. Potential inhibitors were made up in DMSO and then diluted in the assay to give a final concentration of not exceeding 1% (v/v) DMSO.”

By IC50 is commonly meant the concentration that gives 50% inhibition.

Sequence of recombinant human PI3Kβ (6-His(p110-p85α)) (P42338 whole entry): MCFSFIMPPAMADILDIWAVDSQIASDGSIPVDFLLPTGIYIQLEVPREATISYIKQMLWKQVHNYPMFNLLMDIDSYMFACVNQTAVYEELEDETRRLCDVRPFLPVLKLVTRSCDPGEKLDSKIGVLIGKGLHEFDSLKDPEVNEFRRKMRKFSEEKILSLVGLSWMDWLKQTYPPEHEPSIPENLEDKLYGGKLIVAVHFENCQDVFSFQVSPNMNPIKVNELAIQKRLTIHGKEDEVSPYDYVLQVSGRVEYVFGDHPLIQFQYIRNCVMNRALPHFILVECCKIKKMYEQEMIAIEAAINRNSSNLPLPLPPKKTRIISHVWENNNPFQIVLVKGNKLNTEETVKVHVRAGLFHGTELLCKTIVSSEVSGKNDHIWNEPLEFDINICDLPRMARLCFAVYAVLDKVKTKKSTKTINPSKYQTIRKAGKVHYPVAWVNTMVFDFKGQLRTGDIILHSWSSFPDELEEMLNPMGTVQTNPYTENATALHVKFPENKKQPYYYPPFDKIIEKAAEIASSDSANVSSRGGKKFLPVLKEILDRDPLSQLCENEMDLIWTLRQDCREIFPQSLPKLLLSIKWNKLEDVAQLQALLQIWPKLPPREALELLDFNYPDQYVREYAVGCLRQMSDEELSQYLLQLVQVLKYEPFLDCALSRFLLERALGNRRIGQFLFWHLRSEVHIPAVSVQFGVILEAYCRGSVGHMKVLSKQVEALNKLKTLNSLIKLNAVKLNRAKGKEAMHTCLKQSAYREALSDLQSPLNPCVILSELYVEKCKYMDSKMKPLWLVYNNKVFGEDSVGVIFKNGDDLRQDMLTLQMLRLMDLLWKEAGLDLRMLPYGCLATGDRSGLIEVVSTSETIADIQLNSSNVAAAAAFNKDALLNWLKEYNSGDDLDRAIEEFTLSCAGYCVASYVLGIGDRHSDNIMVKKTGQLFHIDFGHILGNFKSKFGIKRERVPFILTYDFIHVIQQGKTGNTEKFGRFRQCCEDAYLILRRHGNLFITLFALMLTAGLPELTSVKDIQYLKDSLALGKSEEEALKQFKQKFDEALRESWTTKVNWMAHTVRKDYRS
Sequence of recombinant human PI3Kβ (6-His(p110-p85α)) (P27986 whole entry partner): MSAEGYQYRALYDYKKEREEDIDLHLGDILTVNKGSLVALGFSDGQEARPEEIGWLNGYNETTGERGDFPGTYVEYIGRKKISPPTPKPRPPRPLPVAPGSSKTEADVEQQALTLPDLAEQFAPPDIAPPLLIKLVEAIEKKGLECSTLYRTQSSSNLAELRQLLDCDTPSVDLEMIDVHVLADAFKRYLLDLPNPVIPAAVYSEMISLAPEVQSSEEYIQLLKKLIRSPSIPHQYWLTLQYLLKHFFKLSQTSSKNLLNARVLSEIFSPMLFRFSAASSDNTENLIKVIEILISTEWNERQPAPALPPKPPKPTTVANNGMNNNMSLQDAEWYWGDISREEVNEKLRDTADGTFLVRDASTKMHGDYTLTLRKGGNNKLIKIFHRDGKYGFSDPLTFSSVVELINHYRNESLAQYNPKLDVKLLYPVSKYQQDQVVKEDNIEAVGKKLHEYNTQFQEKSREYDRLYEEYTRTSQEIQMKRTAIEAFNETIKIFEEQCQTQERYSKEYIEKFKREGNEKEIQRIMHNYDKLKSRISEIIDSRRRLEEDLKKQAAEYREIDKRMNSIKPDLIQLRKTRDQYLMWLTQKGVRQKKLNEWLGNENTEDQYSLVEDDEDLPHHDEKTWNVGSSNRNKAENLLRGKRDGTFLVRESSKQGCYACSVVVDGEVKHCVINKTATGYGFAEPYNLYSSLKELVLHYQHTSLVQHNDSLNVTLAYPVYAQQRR
Sequence of recombinant human PI3Kδ (6-His(p110-p85α)) (O00329 whole entry): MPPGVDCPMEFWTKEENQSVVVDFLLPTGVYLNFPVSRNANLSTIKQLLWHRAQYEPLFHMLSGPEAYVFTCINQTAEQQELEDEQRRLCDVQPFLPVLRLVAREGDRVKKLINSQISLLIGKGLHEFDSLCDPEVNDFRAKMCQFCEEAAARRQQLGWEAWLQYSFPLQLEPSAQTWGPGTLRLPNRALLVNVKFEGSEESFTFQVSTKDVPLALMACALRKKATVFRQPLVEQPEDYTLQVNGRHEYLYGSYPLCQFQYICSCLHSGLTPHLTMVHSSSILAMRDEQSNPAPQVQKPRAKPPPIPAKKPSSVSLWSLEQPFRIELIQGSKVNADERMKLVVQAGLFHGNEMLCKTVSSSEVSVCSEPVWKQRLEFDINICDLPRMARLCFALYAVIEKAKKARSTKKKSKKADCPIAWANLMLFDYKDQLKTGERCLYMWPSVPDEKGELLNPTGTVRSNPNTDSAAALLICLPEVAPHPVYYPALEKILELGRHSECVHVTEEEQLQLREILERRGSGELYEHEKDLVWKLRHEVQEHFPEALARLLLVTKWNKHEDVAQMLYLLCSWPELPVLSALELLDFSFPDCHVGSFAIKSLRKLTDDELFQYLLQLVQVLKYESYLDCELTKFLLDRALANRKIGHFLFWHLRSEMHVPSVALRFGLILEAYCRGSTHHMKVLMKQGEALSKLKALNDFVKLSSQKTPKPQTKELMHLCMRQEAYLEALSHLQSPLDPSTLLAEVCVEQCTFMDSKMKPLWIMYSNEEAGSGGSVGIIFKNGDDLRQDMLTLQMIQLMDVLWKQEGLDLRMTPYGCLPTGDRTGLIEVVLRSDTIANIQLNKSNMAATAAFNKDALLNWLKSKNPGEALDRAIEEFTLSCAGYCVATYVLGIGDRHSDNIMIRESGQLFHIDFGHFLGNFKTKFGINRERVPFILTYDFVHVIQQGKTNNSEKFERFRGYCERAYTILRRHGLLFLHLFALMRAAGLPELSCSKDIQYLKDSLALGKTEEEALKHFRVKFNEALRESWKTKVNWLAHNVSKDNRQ
Sequence of recombinant human PI3Kδ (6-His(p110-p85α)) (P27986 whole entry partner): as the sequence (P27986 whole entry partner) above
Sequence of recombinant human PI3Kα (6-His(p110-p85α)) (P42336 whole entry): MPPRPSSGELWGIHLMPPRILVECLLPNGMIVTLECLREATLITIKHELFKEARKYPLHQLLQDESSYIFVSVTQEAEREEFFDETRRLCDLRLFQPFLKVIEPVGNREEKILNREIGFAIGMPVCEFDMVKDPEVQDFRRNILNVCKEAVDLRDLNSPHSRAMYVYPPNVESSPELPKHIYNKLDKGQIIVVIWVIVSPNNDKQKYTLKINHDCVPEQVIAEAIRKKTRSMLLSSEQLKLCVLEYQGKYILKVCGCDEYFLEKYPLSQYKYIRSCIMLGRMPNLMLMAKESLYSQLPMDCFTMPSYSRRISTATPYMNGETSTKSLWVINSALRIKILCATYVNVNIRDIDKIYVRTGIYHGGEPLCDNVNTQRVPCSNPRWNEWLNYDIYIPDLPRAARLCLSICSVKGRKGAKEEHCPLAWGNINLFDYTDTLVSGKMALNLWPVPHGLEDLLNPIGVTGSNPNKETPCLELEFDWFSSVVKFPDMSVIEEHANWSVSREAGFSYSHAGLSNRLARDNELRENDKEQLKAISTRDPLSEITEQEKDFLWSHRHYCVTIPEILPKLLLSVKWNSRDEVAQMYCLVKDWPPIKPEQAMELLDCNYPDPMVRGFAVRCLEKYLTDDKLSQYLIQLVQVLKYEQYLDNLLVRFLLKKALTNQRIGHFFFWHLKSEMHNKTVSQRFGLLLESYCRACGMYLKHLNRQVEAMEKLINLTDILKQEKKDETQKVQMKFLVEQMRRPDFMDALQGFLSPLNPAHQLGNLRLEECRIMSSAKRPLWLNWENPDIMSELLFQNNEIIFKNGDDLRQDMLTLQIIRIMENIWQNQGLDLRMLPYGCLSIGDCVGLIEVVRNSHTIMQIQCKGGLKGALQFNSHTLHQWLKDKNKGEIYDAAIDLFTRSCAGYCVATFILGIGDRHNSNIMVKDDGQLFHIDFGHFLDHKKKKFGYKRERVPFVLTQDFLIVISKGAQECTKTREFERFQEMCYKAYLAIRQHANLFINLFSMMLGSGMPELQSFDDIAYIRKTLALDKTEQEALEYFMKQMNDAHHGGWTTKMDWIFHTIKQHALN
Sequence of recombinant human PI3Kα (6-His(p110-p85α)) (P27986 whole entry partner): as the sequence (P27986 whole entry partner) above

`CNS(=O)(=O)c1cc(-c2sc(Nc3cccc(N(C)C(C)=O)n3)nc2C)cc2c1C(=O)N([C@@H](C)C1CC1)C2` [Example 13, N-{6-[(5-{2-[(1S)-1-Cyclopropylethyl]-7-(methylsulfamoyl)-1-oxo-2,3-dihydro-1H-isoindol-5-yl}-4-methyl-1,3-thiazol-2-yl)amino]pyridin-2-yl}-N-methylacetamide]: the IC50 in test [1] was determined as 0.068 µM; in test [2], 0.0008 µM; in test [3] it was 1.57 µM; in test [4] it was 0.0011 µM.

On to `CNS(=O)(=O)c1cc(-c2sc(Nc3cccc(N(C)C(=O)COC)n3)nc2C)cc2c1C(=O)N([C@@H](C)C1CC1)C2` [Example 14, N-{6-[(5-{2-[(1S)-1-Cyclopropylethyl]-7-(methylsulfamoyl)-1-oxo-2,3-dihydro-1H-isoindol-5-yl}-4-methyl-1,3-thiazol-2-yl)amino]pyridin-2-yl}-2-methoxy-N-methylacetamide], for which the IC50 in test [1] worked out at 0.08 µM; in test [2], 0.0009 µM; in test [3], 0.724 µM; in test [4] it was 0.0004 µM.

With `CNS(=O)(=O)c1cc(-c2sc(Nc3cccc(N(C)C(=O)[C@@H](C)OC)n3)nc2C)cc2c1C(=O)N([C@@H](C)C1CC1)C2` [Example 15, (2R)—N-{6-[(5-{2-[(1S)-1-Cyclopropylethyl]-7-(methylsulfamoyl)-1-oxo-2,3-dihydro-1H-isoindol-5-yl}-4-methyl-1,3-thiazol-2-yl)amino]pyridin-2-yl}-2-methoxy-N-methylpropanamide], the IC50 in test [1] amounted to 0.089 µM; in test [2], 0.001 µM; in test [3], 1.17 µM; in test [4], 0.0012 µM.

As to `CNS(=O)(=O)c1cc(-c2sc(Nc3cccc(N(C)C(=O)[C@H](C)OC)n3)nc2C)cc2c1C(=O)N([C@@H](C)C1CC1)C2` [Example 16, (2S)—N-{6-[(5-{2-[(1S)-1-Cyclopropylethyl]-7-(methylsulfamoyl)-1-oxo-2,3-dihydro-1H-isoindol-5-yl}-4-methyl-1,3-thiazol-2-yl)amino]pyridin-2-yl}-2-methoxy-N-methylpropanamide], the half-maximal inhibitory concentration (IC50) came to 0.055 µM in test [1], 0.0012 µM in test [2], 0.539 µM in test [3] and 0.0008 µM in test [4].

Consider `CCOCC(=O)N(C)c1cccc(Nc2nc(C)c(-c3cc4c(c(S(=O)(=O)NC)c3)C(=O)N([C@@H](C)C3CC3)C4)s2)n1` [Example 17, N-{6-[(5-{2-[(1S)-1-Cyclopropylethyl]-7-(methylsulfamoyl)-1-oxo-2,3-dihydro-1H-isoindol-5-yl}-4-methyl-1,3-thiazol-2-yl)amino]pyridin-2-yl}-2-ethoxy-N-methylacetamide], for which the half-maximal inhibitory concentration (IC50) in test [1] was 0.048 µM; in test [2], 0.0011 µM; in test [3] it was 0.677 µM; in test [4] it was 0.0003 µM.

As for `CCN(C(=O)COC)c1cccc(Nc2nc(C)c(-c3cc4c(c(S(=O)(=O)NC)c3)C(=O)N([C@@H](C)C3CC3)C4)s2)n1` [Example 18, N-{6-[(5-{2-[(1S)-1-Cyclopropylethyl]-7-(methylsulfamoyl)-1-oxo-2,3-dihydro-1H-isoindol-5-yl}-4-methyl-1,3-thiazol-2-yl)amino]pyridin-2-yl}-N-ethyl-2-methoxyacetamide], the IC50 in test [1] amounted to 0.025 µM; in test [2] it was 0.0008 µM; in test [3], 0.231 µM; in test [4], 0.0003 µM.

`CNS(=O)(=O)c1cc(-c2sc(Nc3cccc(N4CCOCC4=O)n3)nc2C)cc2c1C(=O)N([C@@H](C)C1CC1)C2` [Example 20, 2-[(1S)-1-Cyclopropylethyl]-N-methyl-6-(4-methyl-2-{[6-(3-oxomorpholin-4-yl)pyridin-2-yl]amino}-1,3-thiazol-5-yl)-3-oxo-2,3-dihydro-1H-isoindole-4-sulfonamide]: the IC50 was found to be 0.037 µM in test [1], 0.0009 µM in test [2], 0.543 µM in test [3] and 0.0007 µM in test [4].

Turning to `CNS(=O)(=O)c1cc(-c2sc(Nc3cccc(N4CCCOC4=O)n3)nc2C)cc2c1C(=O)N([C@@H](C)C1CC1)C2` [Example 21, 2-[(1S)-1-Cyclopropylethyl]-N-methyl-6-(4-methyl-2-{[6-(2-oxo-1,3-oxazinan-3-yl)pyridin-2-yl]amino}-1,3-thiazol-5-yl)-3-oxo-2,3-dihydro-1H-isoindole-4-sulfonamide], the IC50 in test [1] was found to be 0.019 µM; in test [2], 0.0011 µM; in test [3] it was 0.103 µM; in test [4], 0.0006 µM.

In the case of `CNS(=O)(=O)c1cc(-c2sc(Nc3cccc(N4CCN(C)CC4=O)n3)nc2C)cc2c1C(=O)N([C@@H](C)C1CC1)C2` [Example 22, 2-[(1S)-1-Cyclopropylethyl]-N-methyl-6-(4-methyl-2-{[6-(4-methyl-2-oxopiperazin-1-yl)pyridin-2-yl]amino}-1,3-thiazol-5-yl)-3-oxo-2,3-dihydro-1H-isoindole-4-sulfonamide], the IC50 in test [1] was determined as 0.038 µM; in test [2], 0.001 µM; in test [3] it was 0.328 µM; in test [4] it was 0.0013 µM.

With `CNS(=O)(=O)c1cc(-c2sc(Nc3cccc(N4CC(=O)N5CCC[C@H]5C4=O)n3)nc2C)cc2c1C(=O)N([C@@H](C)C1CC1)C2` [Example 23, 2-[(1S)-1-Cyclopropylethyl]-6-[2-({6-[(8aS)-1,4-dioxohexahydropyrrolo[1,2-a]pyrazin-2(1H)-yl]pyridin-2-yl}amino)-4-methyl-1,3-thiazol-5-yl]-N-methyl-3-oxo-2,3-dihydro-1H-isoindole-4-sulfonamide], the IC50 stood at 0.368 µM in test [1], 0.0013 µM in test [2], 4.88 µM in test [3] and 0.0194 µM in test [4].

On to `CNS(=O)(=O)c1cc(-c2sc(Nc3cccc(N4CCCS4(=O)=O)n3)nc2C)cc2c1C(=O)N([C@@H](C)C1CC1)C2` [Example 24, 2-[(1S)-1-Cyclopropylethyl]-6-(2-{[6-(1,1-dioxido-1,2-thiazolidin-2-yl)pyridin-2-yl]amino}-4-methyl-1,3-thiazol-5-yl)-N-methyl-3-oxo-2,3-dihydro-1H-isoindole-4-sulfonamide], for which the IC50 in test [1] is 0.042 µM; in test [2], 0.0009 µM; in test [3], 0.897 µM; in test [4], 0.0004 µM.

On to `CNS(=O)(=O)c1cc(-c2sc(Nc3cccc(N4CCCC4=O)n3)nc2C)cc2c1C(=O)N([C@@H](C)C(F)(F)F)C2` [Example 25, N-Methyl-6-(4-methyl-2-{[6-(2-oxopyrrolidin-1-yl)pyridin-2-yl]amino}-1,3-thiazol-5-yl)-3-oxo-2-[(2S)-1,1,1-trifluoropropan-2-yl]-2,3-dihydro-1H-isoindole-4-sulfonamide], for which the IC50 came out at 0.07 µM in test [1], 0.0011 µM in test [2], 0.505 µM in test [3] and 0.0007 µM in test [4].

Consider `CCNS(=O)(=O)c1cc(-c2sc(Nc3cccc(N(C)C(=O)COC)n3)nc2C)cc2c1C(=O)N([C@@H](C)C1CC1)C2` [Example 26, N-{6-[(5-{2-[(1S)-1-Cyclopropylethyl]-7-(ethylsulfamoyl)-1-oxo-2,3-dihydro-1H-isoindol-5-yl}-4-methyl-1,3-thiazol-2-yl)amino]pyridin-2-yl}-2-methoxy-N-methylacetamide], for which the IC50 in test [1] is 0.11 µM; in test [2], 0.0011 µM; in test [3] it was 0.562 µM; in test [4], 0.0005 µM.

As to `CCNS(=O)(=O)c1cc(-c2sc(Nc3cccc(N4CCOCC4=O)n3)nc2C)cc2c1C(=O)N([C@@H](C)C(F)(F)F)C2` [Example 27, N-Ethyl-6-(4-methyl-2-{[6-(3-oxomorpholin-4-yl)pyridin-2-yl]amino}-1,3-thiazol-5-yl)-3-oxo-2-[(2S)-1,1,1-trifluoropropan-2-yl]-2,3-dihydro-1H-isoindole-4-sulfonamide], the IC50 in test [1] worked out at 0.065 µM; in test [2], 0.0009 µM; in test [3], 0.178 µM; in test [4], 0.0007 µM.
